Measured values published in patent US20230233569A1 (Revolution Medicines, Inc., priority 2020, published 2023).
Like-named read-outs stand apart in the source and are kept apart here.

What was measured:
[1] = tested on: Capan-1 (K-Ras G12V); assay: CellTiter-Glo cell viability assay, 5-day treatment; format: cell-based; settings: Homo sapiens, CAPAN-1, 120 h, 5-day treatment; read-out: Capan-1 Cell Viability assay data (K-Ras G12V, IC50)
How it was run: (§1)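 Seeded cells received test compound by direct dispensing. On day 5 the plates sat at room temperature approximately 30 minutes, then luminescence was measured. Data were normalized to DMSO and curve-fitted with four parameters.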

[2] = tested on: NCI-H358 (K-Ras G12C); assay: as above; format: cell-based; settings: Homo sapiens, NCI-H358, 120 h, 5-day treatment; read-out: H358 Cell Viability assay data (K-Ras G12C, IC50)
How it was run: as §1

[3] = target: KRAS G12C (Homo sapiens, UniProt P01116+P62937, G12C); assay: Disruption of BRAF RBD interaction with Ras (FRET / MOA assay, with Cyclophilin A); format: biochemical
How it was run: (§2)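 Measured via TR-FRET after 3 h at 25 °C with compound (30 μM top, threefold serial steps, ten concentrations) plus K-Ras, Cyclophilin A and BRAF RBD, followed by 1.5 h with anti-His europium (10 nM) and anti-GST allophycocyanin (50 nM). Signal loss versus DMSO gave IC50.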

[4] = target: KRAS G12D (Homo sapiens, UniProt P01116+P62937, G12D); assay: as above; format: biochemical
How it was run: as §2

[5] = target: KRAS G12S (Homo sapiens, UniProt P01116+P62937, G12S); assay: as above; format: biochemical
How it was run: as §2

[6] = target: KRAS G12V (Homo sapiens, UniProt P01116+P62937, G12V); assay: as above; format: biochemical
How it was run: as §2

[7] = target: KRAS G13C (Homo sapiens, UniProt P01116+P62937, G13C); assay: as above; format: biochemical
How it was run: as §2

[8] = target: KRAS G13D (Homo sapiens, UniProt P01116+P62937, G13D); assay: as above; format: biochemical
How it was run: as §2

[9] = target: KRAS WT (Homo sapiens, UniProt P01116+P62937); assay: as above; format: biochemical
How it was run: as §2

[10] = target: NRAS G12C (Homo sapiens, UniProt P01111+P62937, G12C); assay: as above; format: biochemical
[11] = target: KRAS Q61H (Homo sapiens, UniProt P01116+P62937, Q61H); assay: as above; format: biochemical; settings: KRAS Q61H; read-out: KRAS Q61H FRET data IC50
How it was run: (§3)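 TR-FRET in 25 mM HEPES pH 7.3, 100 mM NaCl, 5 mM MgCl2, 0.1% BSA: 25 μM Cyclophilin A, 12.5 nM His6-Ras-GMPPNP, 50 nM GST-BRAF RBD with compound (10-point 3-fold series from 30 μM), 3 h at 25° C. Anti-His Eu/anti-GST APC added, 1.5 h more; IC50 from decreased FRET ratio versus DMSO.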

[12] = target: NRAS Q61K (Homo sapiens, UniProt P01111+P62937, Q61K); assay: as above; format: biochemical; settings: NRAS Q61K; read-out: NRAS Q61K FRET data IC50
How it was run: as §3

[13] = target: NRAS Q61R (Homo sapiens, UniProt P01111+P62937, Q61R); assay: as above; format: biochemical; settings: NRAS Q61R; read-out: NRAS Q61R FRET data IC50
How it was run: as §3

[14] = target: NRAS WT (Homo sapiens, UniProt P01111+P62937); assay: as above; format: biochemical; settings: NRAS WT; read-out: NRAS WT FRET data IC50
How it was run: as §3

[15] = read-out: KRAS G12C FRET data, IC50
[16] = read-out: KRAS G12D FRET data, IC50
[17] = read-out: KRAS G12S FRET data, IC50
[18] = KRAS G12V, read-out: KRAS G12V FRET data IC50
[19] = read-out: KRAS G13C FRET data, IC50
[20] = KRAS G13D, read-out: KRAS G13D FRET data IC50
[21] = KRAS WT, read-out: KRAS WT FRET data IC50
[22] = NRAS G12C, read-out: NRAS G12C FRET data IC50

Sequence of KRAS G12V (P01116 1-169 isoform P01116-2 G12V limits assumed): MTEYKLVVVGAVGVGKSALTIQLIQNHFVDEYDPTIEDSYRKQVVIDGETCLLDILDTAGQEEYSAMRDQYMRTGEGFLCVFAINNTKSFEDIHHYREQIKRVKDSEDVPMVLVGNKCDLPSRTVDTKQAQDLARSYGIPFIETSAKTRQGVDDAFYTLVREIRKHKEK
Sequence of KRAS G12V (P62937 whole entry): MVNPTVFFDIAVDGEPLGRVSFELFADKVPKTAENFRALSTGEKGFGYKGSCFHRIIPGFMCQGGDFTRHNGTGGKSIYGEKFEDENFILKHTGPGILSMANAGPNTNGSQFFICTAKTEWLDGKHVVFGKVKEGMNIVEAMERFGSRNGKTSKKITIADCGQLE
Sequence of NRAS G12C (P01111 whole entry G12C): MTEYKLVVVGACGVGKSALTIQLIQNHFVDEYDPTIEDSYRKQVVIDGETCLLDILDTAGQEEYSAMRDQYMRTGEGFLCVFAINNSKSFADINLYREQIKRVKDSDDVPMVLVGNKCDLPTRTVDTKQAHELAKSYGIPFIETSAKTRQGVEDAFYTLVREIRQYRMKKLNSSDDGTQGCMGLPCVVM
Sequence of NRAS G12C (P62937 whole entry): as the sequence (P62937 whole entry) above
Sequence of KRAS G13C (P01116 1-169 isoform P01116-2 G13C): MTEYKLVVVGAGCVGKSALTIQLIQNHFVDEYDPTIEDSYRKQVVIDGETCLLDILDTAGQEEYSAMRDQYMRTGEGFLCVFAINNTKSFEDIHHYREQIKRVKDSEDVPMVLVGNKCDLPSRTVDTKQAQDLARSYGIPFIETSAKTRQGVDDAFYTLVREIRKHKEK
Sequence of KRAS G13C (P62937 whole entry): as the sequence (P62937 whole entry) above
Sequence of KRAS WT (P01116 1-169 isoform P01116-2 limits assumed): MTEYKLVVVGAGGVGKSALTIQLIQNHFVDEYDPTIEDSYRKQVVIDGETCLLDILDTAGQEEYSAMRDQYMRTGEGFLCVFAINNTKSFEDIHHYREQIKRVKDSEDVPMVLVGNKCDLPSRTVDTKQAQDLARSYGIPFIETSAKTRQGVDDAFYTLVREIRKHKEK
Sequence of KRAS WT (P62937 whole entry): as the sequence (P62937 whole entry) above
Sequence of KRAS G12C (P01116 1-169 isoform P01116-2 G12C): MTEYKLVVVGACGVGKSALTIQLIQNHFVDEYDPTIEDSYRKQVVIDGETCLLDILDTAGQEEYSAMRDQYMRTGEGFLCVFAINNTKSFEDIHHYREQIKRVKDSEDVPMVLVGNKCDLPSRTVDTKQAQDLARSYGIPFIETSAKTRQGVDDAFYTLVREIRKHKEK
Sequence of KRAS G12C (P62937 whole entry): as the sequence (P62937 whole entry) above
Sequence of KRAS G12D (P01116 1-169 isoform P01116-2 G12D limits assumed): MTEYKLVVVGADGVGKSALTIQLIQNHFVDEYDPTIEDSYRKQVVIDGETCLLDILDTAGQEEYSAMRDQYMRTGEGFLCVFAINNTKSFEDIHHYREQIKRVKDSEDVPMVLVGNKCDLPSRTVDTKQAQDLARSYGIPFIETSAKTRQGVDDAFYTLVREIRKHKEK
Sequence of KRAS G12D (P62937 whole entry): as the sequence (P62937 whole entry) above
Sequence of NRAS WT (P01111 whole entry): as the sequence (P01111 whole entry G12C) above, with C12G counted along it
Sequence of NRAS WT (P62937 whole entry): as the sequence (P62937 whole entry) above
Sequence of NRAS Q61K (P01111 whole entry Q61K): as the sequence (P01111 whole entry G12C) above, with C12G, Q61K counted along it
Sequence of NRAS Q61K (P62937 whole entry): as the sequence (P62937 whole entry) above
Sequence of KRAS G13D (P01116 1-169 isoform P01116-2 G13D limits assumed): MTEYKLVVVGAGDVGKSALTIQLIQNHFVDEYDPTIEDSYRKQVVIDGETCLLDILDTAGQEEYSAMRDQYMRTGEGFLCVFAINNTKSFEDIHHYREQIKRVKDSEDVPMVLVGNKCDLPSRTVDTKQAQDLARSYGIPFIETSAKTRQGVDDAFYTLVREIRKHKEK
Sequence of KRAS G13D (P62937 whole entry): as the sequence (P62937 whole entry) above
Sequence of KRAS G12S (P01116 1-169 isoform P01116-2 G12S limits assumed): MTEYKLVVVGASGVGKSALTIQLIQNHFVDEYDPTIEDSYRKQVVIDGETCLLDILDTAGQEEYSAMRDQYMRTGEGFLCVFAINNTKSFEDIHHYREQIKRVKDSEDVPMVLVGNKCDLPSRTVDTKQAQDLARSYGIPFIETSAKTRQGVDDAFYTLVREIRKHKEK
Sequence of KRAS G12S (P62937 whole entry): as the sequence (P62937 whole entry) above
Sequence of KRAS Q61H (P01116 1-169 isoform P01116-2 Q61H limits assumed): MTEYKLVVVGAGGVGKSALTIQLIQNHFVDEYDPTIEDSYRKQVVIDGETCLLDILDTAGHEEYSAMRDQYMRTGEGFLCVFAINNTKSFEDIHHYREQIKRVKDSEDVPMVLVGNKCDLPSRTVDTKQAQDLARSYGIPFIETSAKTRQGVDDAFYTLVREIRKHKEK
Sequence of KRAS Q61H (P62937 whole entry): as the sequence (P62937 whole entry) above
Sequence of NRAS Q61R (P01111 whole entry Q61R): as the sequence (P01111 whole entry G12C) above, with C12G, Q61R counted along it
Sequence of NRAS Q61R (P62937 whole entry): as the sequence (P62937 whole entry) above

SMILES	IC50 [2] [µM]	IC50 [3, 15] [µM]	IC50 [4, 16] [µM]	IC50 [5, 17] [µM]	IC50 [6, 18] [µM]	IC50 [7, 19] [µM]	IC50 [8, 20] [µM]	IC50 [9, 21] [µM]	IC50 [10, 22] [µM]	IC50 [11] [µM]	IC50 [12] [µM]	IC50 [13] [µM]	IC50 [14] [µM]	IC50 [1] [µM]	also measured
CCn1c(-c2cccnc2[C@H](C)OC)c2c3cc(ccc31)-c1csc(n1)C[C@H](NC(=O)[C@H](C(C)C)N(C)C(=O)N1CCN3CCOC[C@H]3C1)C(=O)N1CCC[C@H](N1)C(=O)OCC(C)(C)C2 [Example A548]	0.01 to 0.1	0.1 to 1	1 to 10	1 to 10	0.1 to 1	0.1 to 1	1 to 10	0.1 to 1	0.1 to 1	0.1 to 1	0.1 to 1	0.1 to 1	0.1 to 1	0.01 to 0.1	–
CCn1c(-c2cccnc2[C@H](C)OC)c2c3cc(ccc31)-c1csc(n1)C[C@H](NC(=O)[C@H](C(C)C)N(C)C(=O)N1CCN(C)CC1)C(=O)N1CCC[C@H](N1)C(=O)OCC(C)(C)C2 [Example A570]	0.01 to 0.1	0.1 to 1	1 to 10	0.1 to 1	0.1 to 1	0.1 to 1	0.1 to 1	0.1 to 1	0.1 to 1	0.1 to 1	0.1 to 1	0.1 to 1	0.1 to 1	0.01 to 0.1	–
CCn1c(-c2cccnc2[C@H](C)OC)c2c3cc(ccc31)-c1csc(n1)C[C@H](NC(=O)[C@H](C(C)C)N(C)C(=O)N1CCOC[C@@H]1CN(C)C)C(=O)N1CCC[C@H](N1)C(=O)OCC(C)(C)C2 [Example A572]	0.1 to 1	–	–	–	–	–	–	–	–	0.1 to 1	1 to 10	1 to 10	1 to 10	1 to 10	IC50 ([3]; KRAS G12C FRET data, IC50): 1 to 10 µM; IC50 ([4]; KRAS G12D FRET data, IC50): 1 to 10 µM; IC50 ([5]; KRAS G12S FRET data, IC50): 1 to 10 µM; IC50 ([6]; KRAS G12V FRET data IC50, KRAS G12V): 1 to 10 µM; IC50 ([7]; KRAS G13C FRET data, IC50): 1 to 10 µM; IC50 ([8]; KRAS G13D FRET data IC50, KRAS G13D): 1 to 10 µM; IC50 ([9]; KRAS WT FRET data IC50, KRAS WT): 1 to 10 µM; IC50 ([10]; NRAS G12C FRET data IC50, NRAS G12C): 1 to 10 µM

Continued, in another order:

IC50 [2] [µM]	IC50 [3, 15] [µM]	IC50 [4, 16] [µM]	IC50 [5, 17] [µM]	IC50 [6, 18] [µM]	IC50 [7, 19] [µM]	IC50 [8, 20] [µM]	IC50 [9, 21] [µM]	IC50 [10, 22] [µM]	IC50 [11] [µM]	IC50 [12] [µM]	IC50 [13] [µM]	IC50 [14] [µM]	SMILES	IC50 [1] [µM]	also measured
0.01 to 0.1	0.01 to 0.1	0.1 to 1	0.1 to 1	0.1 to 1	0.1 to 1	0.1 to 1	0.01 to 0.1	0.01 to 0.1	0.01 to 0.1	0.01 to 0.1	0.1 to 1	0.01 to 0.1	CCn1c(-c2cccnc2[C@H](C)OC)c2c3cc(ccc31)-c1csc(n1)C[C@H](NC(=O)[C@H](C(C)C)N(C)C(=O)N1CCC[C@@H](CN(C)C)C1)C(=O)N1CCC[C@H](N1)C(=O)OCC(C)(C)C2 [Example A574]	0.01 to 0.1	–
0.1 to 1	0.1 to 1	1 to 10	1 to 10	0.1 to 1	0.1 to 1	1 to 10	0.1 to 1	0.1 to 1	0.1 to 1	0.1 to 1	0.1 to 1	0.1 to 1	CCn1c(-c2cccnc2[C@H](C)OC)c2c3cc(ccc31)-c1csc(n1)C[C@H](NC(=O)[C@H](C(C)C)N(C)C(=O)N1CC(OC)C1)C(=O)N1CC[C@H](C)[C@H](N1)C(=O)OCC(C)(C)C2 [Example A579, N-((2S)-1-(((6^3S,6^4S,4S,Z)-1^1-ethyl-1^2-(2-((S)-1-methoxyethyl)pyridin-3-yl)-6^4,10,10-trimethyl-5,7-dioxo-6^1,6^2,6^3,6^4,6^5,6^6-hexahydro-1^1H-8-oxa-2(4,2)-thiazola-1(5,3)-indola-6(1,3)-pyridazinacycloundecaphane-4-yl)amino)-3-methyl-1-oxobutan-2-yl)-3-methoxy-N-methylazetidine-1-carboxamide]	0.1 to 1	–
